In ChEMBL document CHEMBL5356971, “Optimization of the Antibacterial Spectrum and the Developability Profile of the Novel-Class Natural Product Corramycin” (J Med Chem, 2023):
≈ marks a conversion by molar mass, not a printed value. Calls of active or inactive are those of the source. The rule behind the calls is not given here.

Legend:
Acinetobacter baumannii [1] = assay: Antibacterial activity against multidrug-resistant Acinetobacter baumannii R835 assessed as bacterial growth inhibition incubated for 20 to 22 hrs by CLSI based analysis; format: functional; details: time 20-22 hrs
Klebsiella pneumoniae [2] = assay: Antibacterial activity against wild type Klebsiella pneumoniae ATCC 13883 assessed as reduction in microbial growth incubated for 20 to 22 hrs by CLSI based analysis; format: functional; details: time 20-22 hrs
[3] = Volume of distribution at steady state in Swiss mouse at 3 mg/kg, iv measured upto 24 hrs by LC-MS/MS analysis; format: ADME, organism-based; details: in vivo, read-out: Vdss
[4] = Protein binding in human plasma assessed as free fraction; format: ADME, cell-free
Escherichia coli [5] = assay: Antibacterial activity against wild type Escherichia coli ATCC 35218 assessed as reduction in microbial growth incubated for 20 to 22 hrs by CLSI based analysis; format: functional; details: time 20-22 hrs
Escherichia coli [6] = assay: Antibacterial activity against multidrug-resistant Escherichia coli MG1655 harboring tolC mutant assessed as bacterial growth inhibition incubated for 20 to 22 hrs by CLSI based analysis; format: functional; details: time 20-22 hrs
[7] = Cmax in Swiss mouse kidney at 3 mg/kg, iv measured upto 24 hrs by LC-MS/MS analysis; format: ADME, organism-based; design: dose 3 mg/kg, time < 24 hrs, route iv
Klebsiella pneumoniae [8] = assay: Antibacterial activity against Klebsiella pneumoniae ATCC 13883 infected in Swiss albino mouse thigh infection model at 10 mg/kg, iv measured after 1 hr; format: functional, organism-based
[9] = Observed clearance Swiss mouse at 3 mg/kg, iv measured upto 24 hrs by LC-MS/MS analysis; format: ADME, organism-based; details: in vivo
Providencia stuartii = assay: Antibacterial activity against multidrug-resistant Providencia stuartii ATCC 49809 assessed as bacterial growth inhibition incubated for 20 to 22 hrs by CLSI based analysis; format: functional; details: time 20-22 hrs
Staphylococcus aureus = assay: Antibacterial activity against multidrug-resistant Staphylococcus aureus ATCC 33592 assessed as bacterial growth inhibition incubated for 20 to 22 hrs by CLSI based analysis; format: functional; details: time 20-22 hrs
[10] = Metabolic stability in mouse lung assessed as parent compound remaining measured after 4 hrs by UPLC-MS analysis; format: ADME, tissue-based; details: mouse lung, read-out: Stability
Klebsiella pneumoniae [11] = assay: Antibacterial activity against multidrug-resistant Klebsiella pneumoniae R1525 assessed as bacterial growth inhibition incubated for 20 to 22 hrs by CLSI based analysis; format: functional; details: time 20-22 hrs
THP-1 = assay: Cytotoxicity against human THP-1 cells assessed as inhibition of cell growth at 30 uM incubated for 40 hrs by celltiterglo assay; format: functional, cell-based
Escherichia coli [12] = assay: Antibacterial activity against multidrug-resistant Escherichia coli UT189 assessed as bacterial growth inhibition incubated for 20 to 22 hrs by CLSI based analysis; format: functional; details: time 20-22 hrs
Klebsiella pneumoniae [13] = assay: Antibacterial activity against multidrug-resistant Klebsiella pneumoniae B817 assessed as bacterial growth inhibition incubated for 20 to 22 hrs by CLSI based analysis; format: functional; details: time 20-22 hrs
[14] = Ratio of AUC in kidney to plasma in Swiss mouse at 3 mg/kg, iv measured upto 24 hrs by LC-MS/MS analysis; format: ADME, organism-based; details: read-out: Ratio AUC
Klebsiella pneumoniae [15] = assay: Antibacterial activity against multidrug-resistant Klebsiella pneumoniae BAA2146 assessed as bacterial growth inhibition incubated for 20 to 22 hrs by CLSI based analysis; format: functional; details: time 20-22 hrs
Escherichia coli [16] = assay: Antibacterial activity against Escherichia coli ATCC 35218 harboring SbmA assessed as reduction in microbial growth incubated for 20 to 22 hrs by CLSI based analysis; format: functional; details: time 20-22 hrs
HepG2 = assay: Cytotoxicity against human HepG2 cells assessed as inhibition of cell growth at 30 uM incubated for 40 hrs by celltiterglo assay; format: functional
Escherichia coli [17] = assay: Antibacterial activity against Escherichia coli ATCC 25922 infected in Swiss albino mouse model of Septicaemia infection assessed as log reduction in Septicaemia in blood at 0.1 to 10 mg/kg , iv preincubated for 4 hrs followed by bacterial infection and measured after 4 hrs post infection; format: functional; details: dose 0.1-10 mg/kg, time 8 hrs
[18] = target: Voltage-gated inwardly rectifying potassium channel KCNH2 (Homo sapiens, UniProt Q12809); assay: Inhibition of hERG; format: toxicity; details: human
Klebsiella pneumoniae [19] = assay: Antibacterial activity against […] assessed as bacterial growth inhibition incubated for 20 to 22 hrs by CLSI based analysis; format: functional; details: time 20-22 hrs
[20] = AUClast in Swiss mouse plasma at 3 mg/kg, iv measured upto 24 hrs by LC-MS/MS analysis; format: ADME, organism-based; design: time < 24 hrs, dose 3 mg/kg, route iv
[21] = Ratio of AUC in Lung to plasma in Swiss mouse at 3 mg/kg, iv measured upto 24 hrs by LC-MS/MS analysis; format: ADME, organism-based; details: read-out: Ratio AUC
Klebsiella pneumoniae [22] = assay: Antibacterial activity against multidrug-resistant Klebsiella pneumoniae NCTC 13443 assessed as bacterial growth inhibition incubated for 20 to 22 hrs by CLSI based analysis; format: functional; details: time 20-22 hrs
[23] = Drug excretion in urine of Swiss mouse at 3 mg/kg, iv measured upto 24 hrs by LC-MS/MS analysis; format: ADME, organism-based; details: read-out: Drug excretion
[24] = Cmax in Swiss mouse lung at 3 mg/kg, iv measured upto 24 hrs by LC-MS/MS analysis; format: ADME, organism-based; design: time < 24 hrs, dose 3 mg/kg, route iv
[25] = Protein binding in mouse plasma assessed as free fraction; format: ADME, cell-free
Escherichia coli [26] = assay: Antibacterial activity against Escherichia coli UT189 infected in Swiss albino mouse model of urinary tract infection assessed as log reduction in bacteremia in bladder at 10 mg/kg, iv pre-infected with bacteria for 24 hrs followed by compound treatment for every 24 hrs for 3 days; format: functional; details: time 3 day
Citrobacter freundii = assay: Antibacterial activity against multidrug-resistant Citrobacter freundii ATCC 8090 assessed as bacterial growth inhibition incubated for 20 to 22 hrs by CLSI based analysis; format: functional; details: time 20-22 hrs
Enterobacter cloacae = assay: Antibacterial activity against multidrug-resistant Enterobacter cloacae BAA2341 assessed as bacterial growth inhibition incubated for 20 to 22 hrs by CLSI based analysis; format: functional; details: time 20-22 hrs
Klebsiella pneumoniae [27] = assay: Antibacterial activity against multidrug-resistant Klebsiella pneumoniae NR-48977 assessed as bacterial growth inhibition incubated for 20 to 22 hrs by CLSI based analysis; format: functional; details: time 20-22 hrs
Pseudomonas aeruginosa [28] = assay: Antibacterial activity against multidrug-resistant Pseudomonas aeruginosa PAO1 assessed as bacterial growth inhibition incubated for 20 to 22 hrs by CLSI based analysis; format: functional; details: time 20-22 hrs
Pseudomonas aeruginosa [29] = assay: Antibacterial activity against multidrug-resistant Pseudomonas aeruginosa PAO750 assessed as bacterial growth inhibition incubated for 20 to 22 hrs by CLSI based analysis; format: functional; details: time 20-22 hrs
Klebsiella pneumoniae [30] = assay: Antibacterial activity against Klebsiella pneumoniae ATCC 13883 infected in Swiss albino mouse model of neutropenic lung infection at 10 mg/kg, iv pretreated for 1 hr followed by bacterial infection and measured after 5 hr post infection; format: functional, organism-based; details: time 6.0 hrs
[31] = Toxicity in Swiss albino mouse at 10 mg/kg, iv measured after 1 hr; format: organism-based; details: in vivo
Acinetobacter baumannii [32] = assay: Antibacterial activity against wild type Acinetobacter baumannii ATCC 19606 assessed as reduction in microbial growth incubated for 20 to 22 hrs by CLSI based analysis; format: functional; details: time 20-22 hrs
[33] = Metabolic stability in mouse kidney assessed as parent compound remaining measured after 1 hrs by UPLC-MS analysis; format: ADME, tissue-based; details: read-out: Stability
[34] = Aqueous solubility of compound at pH 5.5; format: physicochemical; details: buffer
Klebsiella pneumoniae [35] = assay: Antibacterial activity against multidrug-resistant Klebsiella pneumoniae BAA2473 assessed as bacterial growth inhibition incubated for 20 to 22 hrs by CLSI based analysis; format: functional; details: time 20-22 hrs
[36] = Metabolic stability in mouse lung assessed as parent compound remaining measured after 1 hrs by UPLC-MS analysis; format: ADME, tissue-based; details: mouse lung, read-out: Stability

Chain of Voltage-gated inwardly rectifying potassium channel KCNH2 (Q12809 whole entry): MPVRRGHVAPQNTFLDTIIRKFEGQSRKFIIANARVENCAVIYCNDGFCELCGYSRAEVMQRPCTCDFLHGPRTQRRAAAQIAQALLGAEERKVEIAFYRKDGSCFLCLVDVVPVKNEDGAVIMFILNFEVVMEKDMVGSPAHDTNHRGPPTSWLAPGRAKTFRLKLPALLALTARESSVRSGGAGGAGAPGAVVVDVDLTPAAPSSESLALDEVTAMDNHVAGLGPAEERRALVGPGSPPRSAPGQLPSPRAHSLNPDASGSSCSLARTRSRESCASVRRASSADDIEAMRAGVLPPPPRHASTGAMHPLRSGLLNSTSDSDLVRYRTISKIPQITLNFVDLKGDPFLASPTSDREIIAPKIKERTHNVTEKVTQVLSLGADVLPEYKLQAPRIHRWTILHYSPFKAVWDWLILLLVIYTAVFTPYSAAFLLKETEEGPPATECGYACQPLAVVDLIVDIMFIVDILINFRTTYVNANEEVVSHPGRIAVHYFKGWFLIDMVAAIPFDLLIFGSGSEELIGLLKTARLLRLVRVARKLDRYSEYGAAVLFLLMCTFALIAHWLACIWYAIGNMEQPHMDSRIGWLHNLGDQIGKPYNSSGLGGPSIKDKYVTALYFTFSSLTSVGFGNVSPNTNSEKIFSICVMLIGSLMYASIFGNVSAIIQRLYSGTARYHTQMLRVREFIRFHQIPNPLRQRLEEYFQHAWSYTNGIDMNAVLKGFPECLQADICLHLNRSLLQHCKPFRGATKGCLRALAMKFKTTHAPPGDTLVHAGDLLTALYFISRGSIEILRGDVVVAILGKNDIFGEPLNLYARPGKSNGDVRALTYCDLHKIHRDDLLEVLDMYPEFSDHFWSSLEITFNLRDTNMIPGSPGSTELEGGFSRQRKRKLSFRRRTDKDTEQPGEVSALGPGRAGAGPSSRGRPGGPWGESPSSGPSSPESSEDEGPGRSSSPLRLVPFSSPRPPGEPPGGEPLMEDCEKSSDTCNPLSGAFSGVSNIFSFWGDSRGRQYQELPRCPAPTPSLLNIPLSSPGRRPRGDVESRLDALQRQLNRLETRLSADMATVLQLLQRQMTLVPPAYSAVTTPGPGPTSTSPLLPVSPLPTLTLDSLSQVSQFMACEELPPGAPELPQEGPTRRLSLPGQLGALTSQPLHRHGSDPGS

`CO[C@@H](CNC(=O)[C@H](NC(=O)[C@H](O)[C@H](C)O)[C@H](O)c1cncn1C)[C@H](O)[C@H](O)C(=O)N(C)[C@@H](Cc1ccccc1)C(=O)NCC(=O)N[C@H](C(=O)N[C@@H](CO)C(=O)N[C@H](C(=O)N[C@H](C(=O)N[C@@H](CC(=O)O)C(=O)N1CCC[C@H]1C(=O)NCc1cc(=O)c(O)cn1O)C(C)(C)C)C(C)(C)O)C(C)(C)O` gave an MIC (Acinetobacter baumannii [1]) of 0.06 µg/mL (≈ 0.0415 µM), an MIC (Klebsiella pneumoniae [2]) of 0.03 µg/mL and a Vd [3] of 0.25 L/kg. For the same molecule, the fraction unbound [4] was 0.26, the MIC (Escherichia coli [5]) was 0.01 µg/mL and the MIC (Escherichia coli [6]) was 0.01 µg/mL (≈ 0.00691 µM). For the same molecule, the Cmax [7] was 14200 ng/mL, the Activity (Klebsiella pneumoniae [8]) was “Active” and the clearance [9] was 13.5 mL/min/kg. The MIC (Providencia stuartii) was 0.06 µg/mL (≈ 0.0415 µM), the MIC (Staphylococcus aureus) was 4 µg/mL (≈ 2.76 µM) and the remaining at 4 h [10] was 80%. For the same molecule, the MIC (Klebsiella pneumoniae [11]) was 0.06 µg/mL (≈ 0.0415 µM), the Activity (THP-1) was “inactive” and the MIC (Escherichia coli [12]) was 0.01 µg/mL (≈ 0.00691 µM). It also gave an MIC (Klebsiella pneumoniae [13]) of 0.03 µg/mL (≈ 0.0207 µM), a Kp at 24 h [14] of 2.5 and an MIC (Klebsiella pneumoniae [15]) of 0.12 µg/mL (≈ 0.0829 µM). The MIC (Escherichia coli [16]) was 0.12 µg/mL, the Activity (HepG2) was “inactive” and the “log(activity)” value (Escherichia coli [17]) was 3. For the same molecule, the “inhibition (INH)” value [18] was “Not Active”, the MIC (Klebsiella pneumoniae [19]) was 0.06 µg/mL (≈ 0.0415 µM) and the AUC(0-t) at 24 h [20] was 2860 ng·h/mL. For the same molecule, the Kp at 24 h [21] was 0.4, the MIC (Klebsiella pneumoniae [22]) was 2 µg/mL (≈ 1.38 µM) and the dose excreted at 24 h [23] was 65%. The Cmax [24] was 2420 ng/mL, the fraction unbound [25] was 0.51 and the “log(activity)” value (Escherichia coli [26]) was 3.1. For the same molecule, the MIC (Citrobacter freundii) was 2 µg/mL (≈ 1.38 µM), the MIC (Enterobacter cloacae) was 0.25 µg/mL (≈ 0.173 µM) and the MIC (Klebsiella pneumoniae [27]) was 4 µg/mL (≈ 2.76 µM). For the same molecule, the MIC (Pseudomonas aeruginosa [28]) was greater than 32 µg/mL, the MIC (Pseudomonas aeruginosa [29]) was 32 µg/mL (≈ 22.1 µM) and the Activity (Klebsiella pneumoniae [30]) was “Active”. The Activity [31] was “Non-Toxic”, the MIC (Acinetobacter baumannii [32]) was 0.03 µg/mL and the remaining at 1 h [33] was 103%. The solubility [34] was 9100 µg/mL (≈ 6290 µM), the MIC (Klebsiella pneumoniae [35]) was 4 µg/mL (≈ 2.76 µM) and the remaining at 1 h [36] was 100%.
